Measurements: patent US20250197420A1, “MACROCYCLIC COMPOUNDS, COMPOSITIONS, AND METHODS OF USING THEREOF” (Sionna Therapeutics Inc., priority 2022, published 2025)

What was measured:
[1] = biological target: T1, Purified recombinant NBD1 (Homo sapiens, UniProt P13569); assay: Aggregation analysis using differential static light scattering (DSLS): thermal stability of NBD1; assay type: binding; details: NBD1 0.2 mg/ml; Tagg of compound well minus average Tagg of DMSO control wells
T1 construct: Purified recombinant NBD1 was produced using previously described methods; made in house
T1 sequence (P13569 423-646 limits assumed): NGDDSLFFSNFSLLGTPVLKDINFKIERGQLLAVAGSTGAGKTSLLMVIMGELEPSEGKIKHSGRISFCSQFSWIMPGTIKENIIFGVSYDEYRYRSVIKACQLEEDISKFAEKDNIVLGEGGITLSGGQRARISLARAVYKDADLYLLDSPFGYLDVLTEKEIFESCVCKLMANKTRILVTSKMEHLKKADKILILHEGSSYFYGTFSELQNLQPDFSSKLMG
Procedure, shortened: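 ΔTagg is compound-well aggregation temperature minus the DMSO-control mean, each Tagg being the inflection point of light scattering measured by DSLS during a 1 °C/min ramp up to 70 °C. The protein was purified NBD1 (0.2 mg/ml) in pH 7.6 buffer containing 2 mM ATP, 5 mM MgCl2 and 1% glycerol.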

[2] = tested on: Primary human bronchial epithelial cells from a ΔF508 homozygous CF donor (CF-HBE cells); assay: TECC24 recording of CFTR-mediated transepithelial chloride transport, AUC fold over benchmark VX-809 @10 μM; assay type: cell-based; details: 48 hours incubation, AUC of forskolin-stimulated IEQ
Protocol: The effects of a test agent on CFTR-mediated transepithelial chloride transport is measured using TECC24 recording analysis. Test agents are solubilized in DMSO. Solubilized test agents are mixed with incubation medium containing DMEM/F12, Ultroser G (0.5%; Crescent Chemical, catalog #67042), Hyclone Fetal Clone II (2%; GE Healthcare, catalog #SH30066.02), bovine brain extract (0.25%; Lonza, catalog #CC-4098), insulin ([…]), IL-13 (10 ng/mL), hydrocortisone (20 nM), transferrin ([…]), triiodothyronine (500 nM), ethanolamine (250 nM), epinephrine (1.5 μM), phosphoethanolamine (250 nM), and retinoic acid (10 nM). Primary human bronchial epithelial cells from a ΔF508 homozygous CF donor (CF-HBE cells; from University of North Carolina Cystic Fibrosis Tissue Procurement Center), grown on Transwell HTS 24-well cell culture inserts (Costar, catalog #3378), are exposed to test agents or controls dissolved in incubation medium. The CF-HBE cells are cultured at 36.5° C. for 48 hours before TECC24 recordings are performed in the presence or absence of test agent, a positive control or vehicle (DMSO).
Following incubation, the transwell cell culture inserts containing the test agent or control-treated CF-HBE cells are loaded onto a TECC24 apparatus (TECC v7 or MTECC v2; EP Design) to record the transepithelial voltage (VT) and resistance (TEER) using 4 AgCl electrodes per well configured in current-clamp mode. The apical and basolateral bath solutions both contain (in mM) 140 NaCl, 5 KCl, 2 CaCl2), 1 MgCl2, 10 Hepes, and 10 glucose (adjusted to pH 7.4 with NaOH). To inhibit basal Na+ absorption, the ENaC inhibitor benzamil (10 μM) is added to the bath. Then, the adenylate cyclase activator, forskolin (10 μM), is added to the bath to activate CFTR. The forskolin-stimulated Cl− transport is halted by addition of CFTR inhibitor-172 (20 μM) to the bath at the end of the experiment to confirm specificity. VT and TEER recordings are digitally acquired at routine intervals using TECC or MTECC software (EP Design). VT and TEER are transformed into equivalent transepithelial Cl− current (IEQ), and the Area Under the Curve (AUC) of the IEQ time course between forskolin and CFTR inhibitor-172 addition is generated using Excel (Microsoft). Efficacy is expressed as the ratio of the test agent AUC divided by vehicle AUC. EC50s based on AUC are generated using the non-linear regression log(agonist) vs. response function in Prism software (Graphpad) with HillSlope fixed=1.
If a test agent increases the AUC of the forskolin-stimulated IEQ relative to VX-809 in CF-HBE cells, and this increase is inhibited by CFTR inhibitor-172, then the test agent is considered a CFTR corrector. TECC assay efficacy is expressed as the ratio of the test agent AUC divided by VX-809 AUC. As set forth in Table 2 below, a TECC value less than 3 is marked “A”; a value between 3 and 6 is marked “B”; a value between 6 and 20 is marked “C”.

| SMILES | DSLS (ΔTagg) [1] | TECC (test agent AUC divided by VX-809 AUC) [2] |
| --- | --- | --- |
| CN1CC(C)(C)CCCC(C)(c2cccc(CCC(=O)O)c2)c2nnc([nH]2)-c2cc(ccc2F)Oc2c(F)cc3[nH]ccc3c2CCC1=O (centres unmarked) [Compound 44, 3-[3-(23,29-Difluoro-6,10,10,12-tetramethyl-13-oxo-25-oxa-3,4,12,20,31-pentazapentacyclo[24.3.1.12,5.016,24.017,21]hentriaconta-1(30),2,4,16,18,21,23,26,28-nonaen-6-yl)phenyl]propanoic acid] | C (a value greater than 10 °C and less than or equal to 25 °C is marked “C”) | C (a value between 6 and 20 is marked “C”) |
| CN1CC(C)(C)CCCC(C)(c2cccc(CCC(=O)NOCCO)c2)c2cnc([nH]2)-c2cc(ccc2F)Oc2c(F)cc3[nH]ccc3c2CCC1=O (single isomer, unassigned) [Compound 58, 3-[3-(23,29-difluoro-6,10,10,12-tetramethyl-13-oxo-25-oxa-3,12,20,31-tetrazapentacyclo[24.3.1.12,5.016,24.017,21]hentriaconta-1(30),2,4,16,18,21,23,26,28-nonaen-6-yl)phenyl]-N-(2-hydroxyethoxy)propanamide] | A (an ΔTagg value less than or equal to 5 °C is marked “A”) | A (a TECC value less than 3 is marked “A”) |
| CN1CC(C)(C)CCCC(C)(c2cccc(CCC(=O)O)c2)c2cnc([nH]2)-c2cc(ccc2F)Oc2c(F)cc3[nH]ccc3c2CCC1=O (single isomer, unassigned) [Compound 49A, 3-[3-(23,29-Difluoro-6,10,10,12-tetramethyl-13-oxo-25-oxa-3,12,20,31-tetrazapentacyclo-[24.3.1.12,5.016,24.017,21]-hentriaconta-1(30),2,4,16,18,21,23,26,28-nonaen-6-yl)phenyl]propanoic acid] | A (an ΔTagg value less than or equal to 5 °C is marked “A”) | A (a TECC value less than 3 is marked “A”) |
| CN1CC(O)CCCCCC(C)(c2cccc(CCC(=O)O)c2)c2cnc([nH]2)-c2cc(ccc2F)Oc2c(F)cc3[nH]ccc3c2CC1=O (centres unmarked) [Compound 112, 3-[3-(24,30-Difluoro-12-hydroxy-6,14-dimethyl-15-oxo-26-oxa-3,14,21,32-tetrazapentacyclo[25.3.1.12,5.017,25.018,22]dotriaconta-1(30),2,4,17(25),18(22),19,23,27(31),28-nonaen-6-yl)phenyl]propanoic acid] | C (a value greater than 10 °C and less than or equal to 25 °C is marked “C”) | B (a value between 3 and 6 is marked “B”) |
| CC1(c2ccccc2)CCCC2(CC2)CNC(=O)CCc2c(c(F)cc3[nH]ccc23)Oc2ccc(F)c(c2)-c2ncc1[nH]2 (centres unmarked) [Compound 37, 23,29-Difluoro-6-methyl-6-phenyl-spiro[25-oxa-3,12,20,31-tetrazapentacyclo[24.3.1.12,5.016,24.017,21]hentriaconta-1(30),2,4,16,18,21,23,26,28-nonaene-10,1′-cyclopropane]-13-one] | A (an ΔTagg value less than or equal to 5 °C is marked “A”) | A (a TECC value less than 3 is marked “A”) |
| CC1(C)CCOCC(c2cccc(CCC(=O)O)c2)n2ccc(n2)-c2cc(ccc2F)Oc2c(F)cc3[nH]ccc3c2COC(=O)N1 (single isomer, unassigned) [Compound 96A, 3-[3-(23,29-difluoro-11,11-dimethyl-13-oxo-8,14,25-trioxa-5,12,20,31-tetrazapentacyclo[24.3.1.12,5.016,24.017,21]hentriaconta-1(30),2(31),3,16,18,21,23,26,28-nonaen-6-yl)phenyl]propanoic acid] | C (a value greater than 10 °C and less than or equal to 25 °C is marked “C”) | B (a value between 3 and 6 is marked “B”) |
| C[C@@H](Cc1cccc(C2(C)CCCC(C)(C)N(C)S(=O)(=O)CCc3c(c(F)cc4[nH]ccc34)Oc3ccc(F)c(c3)-c3nc2nn3C)c1)C(=O)O (single isomer, unassigned) [Compound 117B] | C (a value greater than 10 °C and less than or equal to 25 °C is marked “C”) | B (a value between 3 and 6 is marked “B”) |
| CC1(C)CCCC(C)(c2cccc(CCC(=O)O)c2)c2cnc([nH]2)-c2cc(ccc2F)Oc2c(F)cc3[nH]ccc3c2CCC(=O)NC1 (single isomer, unassigned) [Compound 40B, 3-[3-(23,29-difluoro-6,10,10-trimethyl-13-oxo-25-oxa-3,12,20,31-tetrazapentacyclo-[24.3.1.12,5.016,24.017,21]hentriaconta-1(30),2,4,16,18,21,23,26,28-nonaen-6-yl)phenyl]propanoic acid] | C (a value greater than 10 °C and less than or equal to 25 °C is marked “C”) | B (a value between 3 and 6 is marked “B”) |
| Cn1nc2nc1-c1cc(ccc1F)Oc1c(F)cc3[nH]ccc3c1CCNC(=O)OCC(C)(C)CC[C@@]2(C)c1cccc(CCC(=O)O)c1 (single isomer, unassigned) [Compound 98A] | C (a value greater than 10 °C and less than or equal to 25 °C is marked “C”) | C (a value between 6 and 20 is marked “C”) |
| CN1CC(C)(C)OCCC(C)(c2ccccc2)c2cnc([nH]2)-c2cc(ccc2F)Oc2c(F)cc3[nH]ccc3c2CCC1=O (centres unmarked) [Compound 43, 23,29-Difluoro-6,10,10,12-tetramethyl-6-phenyl-9,25-dioxa-3,12,20,31-tetrazapentacyclo[24.3.1.12,5.016,24.017,21]hentriaconta-1(30),2,4,16,18,21,23,26,28-nonaen-13-one] | A (an ΔTagg value less than or equal to 5 °C is marked “A”) | A (a TECC value less than 3 is marked “A”) |
| CC1(c2cccc(CCC(=O)O)c2)CCCC(O)CNC(=O)CCc2c(c(F)cc3[nH]ccc23)Oc2ccc(F)c(c2)-c2ncc1[nH]2 (centres unmarked) [Compound 106, 3-[3-(23,29-Difluoro-10-hydroxy-6-methyl-13-oxo-25-oxa-3,12,20,31-tetrazapentacyclo[24.3.1.12,5.016,24.017,21]hentriaconta-1(30),2,4,16,18,21,23,26,28-nonaen-6-yl)phenyl]propanoic acid] | C (a value greater than 10 °C and less than or equal to 25 °C is marked “C”) | B (a value between 3 and 6 is marked “B”) |
| CN1CC(C)(C)CCCCC(C)(c2cccc(CCC(=O)O)c2)c2cnc([nH]2)-c2cc(ccc2F)Oc2c(F)cc3[nH]ccc3c2CCC1=O (centres unmarked) [Compound 61, 3-[3-(24,30-Difluoro-6,11,11,13-tetramethyl-14-oxo-26-oxa-3,13,21,32-tetrazapentacyclo[25.3.1.12,5.017,25.018,22]dotriaconta-1(31),2,4,17,19,22,24,27,29-nonaen-6-yl)phenyl]propanoic acid] | C (a value greater than 10 °C and less than or equal to 25 °C is marked “C”) | B (a value between 3 and 6 is marked “B”) |
| CC1(C)CNC(=O)CCc2c(c(F)cc3[nH]ccc23)Oc2ccc(F)c(c2)-c2ncc([nH]2)C(C)(c2cccc(CCC(=O)O)c2)CCOC1 (single isomer, unassigned) [Compound 67A, 3-[3-(24,30-difluoro-6,11,11-trimethyl-14-oxo-9,26-dioxa-3,13,21,32-tetrazapentacyclo[25.3.1.12,5.017,25.018,22]dotriaconta-1(31),2,4,17,19,22,24,27,29-nonaen-6-yl)phenyl]propanoic acid] | C (a value greater than 10 °C and less than or equal to 25 °C is marked “C”) | C (a value between 6 and 20 is marked “C”) |
